Test results taken from the supplement of paper PMC8960247.
± gives the standard error.

Columns and labels:
621-102 (TSC2-deficient) = experiment: relative viability vs DMSO; higher = less cytotoxic; settings: serum: 10% FBS, 72 h
621-103 (TSC2-rescued) = experiment: as above; settings: serum: 10% FBS, 72 h
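Further: immortalized renal angiomyolipoma cells stably carrying empty vector or TSC2, dosed in 384-well plates in DMEM, viability normalized to vehicle-treated wells within each plate.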

SMILES | relative viability (621-102 (TSC2-deficient); 0.0001 µM) | relative viability (621-102 (TSC2-deficient); 0.001 µM) | relative viability (621-102 (TSC2-deficient); 0.01 µM) | relative viability (621-102 (TSC2-deficient); 0.1 µM) | relative viability (621-102 (TSC2-deficient); 1 µM) | relative viability (621-102 (TSC2-deficient); 10 µM) | relative viability (621-103 (TSC2-rescued); 0.0001 µM) | relative viability (621-103 (TSC2-rescued); 0.001 µM) | relative viability (621-103 (TSC2-rescued); 0.01 µM) | relative viability (621-103 (TSC2-rescued); 0.1 µM) | relative viability (621-103 (TSC2-rescued); 1 µM) | relative viability (621-103 (TSC2-rescued); 10 µM)
CC(C)c1nc(CN(C)C(=O)N[C@H](C(=O)N[C@@H](Cc2ccccc2)C[C@H](O)[C@H](Cc2ccccc2)NC(=O)OCc2cncs2)C(C)C)cs1 [Ritonavir] | 106.1 ± 0.46% | 98.8 ± 4.8% | 105 ± 4.1% | 104 ± 1.4% | 100 ± 1.4% | 102 ± 2.6% | 99.5 ± 0.28% | 99.3 ± 1.5% | 98.8 ± 0.17% | 97.77 ± 0.48% | 97.6 ± 2.4% | 98.28 ± 0.37%
O=C(NC[C@H]1CN(c2ccc(N3CCOCC3=O)cc2)C(=O)O1)c1ccc(Cl)s1 [Rivaroxaban (Xarelto)] | 101 ± 5.5% | 104.4 ± 0.87% | 122.4 ± 0.29% | 117 ± 6.5% | 116 ± 1.6% | 120 ± 3.2% | 105 ± 2.4% | 116 ± 3.4% | 121 ± 1.5% | 117 ± 2.9% | 112 ± 1.1% | 104 ± 3.9%
CN(CCOc1ccc(CC2SC(=O)NC2=O)cc1)c1ccccn1 (stereo not drawn) [Rosiglitazone (Avandia)] | 112.8 ± 0.24% | 102 ± 8.2% | 99.4 ± 1% | 101 ± 3% | 102 ± 1.4% | 89.188 ± 0.073% | 97.1 ± 3.3% | 105 ± 2.9% | 102 ± 2.3% | 101 ± 3.8% | 105.9 ± 0.89% | 105 ± 1.4%
Cc1ccc(S(=O)(=O)OCC(=O)Nc2ccc(C(=O)O)c(O)c2)cc1 [S31-201] | 119.8 ± 0.59% | 125 ± 1.4% | 123 ± 3.5% | 121 ± 3.3% | 112 ± 1.6% | 119.2 ± 0.71% | 99.4 ± 2% | 98.17 ± 0.7% | 104 ± 2.1% | 102.7 ± 0.83% | 100 ± 1.8% | 101 ± 1.9%
